These results are taken from BindingDB's records for doi:10.1016/j.bmcl.2009.08.023 (Roche Palo Alto, 2009).

pIC50: −log10 of the molar value.

In the test the target is Genome polyprotein (Hepatitis C virus genotype 1b (isolate Con1), UniProt Q9WMX2). Nature of the test: Inhibition of […] 1b con1 NS5B polymerase assessed as [3H]UTP incorporation into acid insoluble RNA product.
Chain of Genome polyprotein (Q9WMX2 2420-3010 limits assumed): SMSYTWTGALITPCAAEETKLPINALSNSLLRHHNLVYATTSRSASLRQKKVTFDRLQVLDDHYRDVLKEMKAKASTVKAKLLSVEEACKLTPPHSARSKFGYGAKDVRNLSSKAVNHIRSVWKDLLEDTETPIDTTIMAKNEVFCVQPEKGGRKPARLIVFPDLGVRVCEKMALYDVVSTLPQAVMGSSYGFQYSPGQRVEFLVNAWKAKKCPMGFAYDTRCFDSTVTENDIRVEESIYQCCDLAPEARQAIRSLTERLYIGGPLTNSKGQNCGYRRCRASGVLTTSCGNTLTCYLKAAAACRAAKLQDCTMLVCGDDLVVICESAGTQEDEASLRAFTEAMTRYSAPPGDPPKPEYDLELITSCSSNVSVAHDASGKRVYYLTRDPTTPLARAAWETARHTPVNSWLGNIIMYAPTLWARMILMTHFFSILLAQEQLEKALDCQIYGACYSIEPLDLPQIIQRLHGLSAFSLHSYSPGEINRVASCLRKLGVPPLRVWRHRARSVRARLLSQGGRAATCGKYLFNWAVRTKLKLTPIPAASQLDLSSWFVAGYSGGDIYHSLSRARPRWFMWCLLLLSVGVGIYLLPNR
The term pIC50 denotes the IC50 on a negative log10 scale, so that one unit is a factor of ten. Take `CC(C)(C)[C@H]1C(=O)C(C2=Nc3ccc(NS(C)(=O)=O)cc3S(=O)(=O)C2)C(=O)N1Cc1ccccc1` (stereo partly drawn) [N-[3-((S)-1-Benzyl-5-tert-butyl-4-hydroxy-2-oxo-2,5-dihydro-1H-pyrrol-3-yl)-1,1-dioxo-1,4-dihydro-1lambda*6*-benzo[1,4]thiazin-7-yl]-methanesulfonamide]: the negative-log IC50 (pIC50) was 8.10. Then `CC(=O)C1C(C2C(=O)[C@H](C(C)(C)C)N(Cc3ccc(F)cc3)C2=O)=Nc2ccc(NS(C)(=O)=O)cc2S1(=O)=O` (stereo partly drawn) [N-{2-Acetyl-3-[(S)-5-tert-butyl-1-(4-fluoro-benzyl)-4-hydroxy-2-oxo-2,5-dihydro-1H-pyrrol-3-yl]-1,1-dioxo-1,4-dihydro-1lambda*6*-benzo[1,4]thiazin-7-yl}-methanesulfonamide], with 8.40; and `CC(C)(C)[C@H]1C(=O)C(C2=Nc3ccc(NS(C)(=O)=O)cc3S(=O)(=O)C2)C(=O)N1Cc1ccc(F)cc1F` (stereo partly drawn) [N-{3-[(S)-5-tert-Butyl-1-(2,4-difluoro-benzyl)-4-hydroxy-2-oxo-2,5-dihydro-1H-pyrrol-3-yl]-1,1-dioxo-1,4-dihydro-1lambda*6*-benzo[1,4]thiazin-7-yl}-methanesulfonamide], with 7.89; and `CC(C)(C)CCN1C(=O)C(C2=Nc3ccc(NS(C)(=O)=O)cc3S(=O)(=O)C2)C(=O)[C@@H]1C(C)(C)C` (stereo partly drawn) [N-{3-[(S)-5-tert-Butyl-1-(3,3-dimethyl-butyl)-4-hydroxy-2-oxo-2,5-dihydro-1H-pyrrol-3-yl]-1,1-dioxo-1,4-dihydro-1lambda*6*-benzo[1,4]thiazin-7-yl}-methanesulfonamide], with 8.10. Then `CC(C)(C)[C@H]1C(=O)C(C2=Nc3ccc(NS(C)(=O)=O)cc3S(=O)(=O)C2)C(=O)N1Cc1ccc(F)c(Cl)c1` (stereo partly drawn) [N-{3-[(S)-5-tert-Butyl-1-(3-chloro-4-fluoro-benzyl)-4-hydroxy-2-oxo-2,5-dihydro-1H-pyrrol-3-yl]-1,1-dioxo-1,4-dihydro-1lambda*6*-benzo[1,4]thiazin-7-yl}-methanesulfonamide], with 8.30; and `COc1cc(CN2C(=O)C(C3=Nc4ccc(NS(C)(=O)=O)cc4S(=O)(=O)C3)C(=O)[C@@H]2C(C)(C)C)ccc1F` (stereo partly drawn) [N-{3-[(S)-5-tert-Butyl-1-(4-fluoro-3-methoxy-benzyl)-4-hydroxy-2-oxo-2,5-dihydro-1H-pyrrol-3-yl]-1,1-dioxo-1,4-dihydro-1lambda*6*-benzo[1,4]thiazin-7-yl}-methanesulfonamide], with 8.40. The result for `CC(C)CCN1C(=O)C(C2=Nc3ccc(NS(C)(=O)=O)cc3S(=O)(=O)C2)C(=O)[C@@H]1C(C)(C)C` (stereo partly drawn) [N-{3-[(S)-5-tert-Butyl-4-hydroxy-1-(3-methyl-butyl)-2-oxo-2,5-dihydro-1H-pyrrol-3-yl]-1,1-dioxo-1,4-dihydro-1lambda*6*-benzo[1,4]thiazin-7-yl}-methanesulfonamide] reads 8.30.
